What was measured:
human Cav3.2 channel [1] = target: T1, human Cav3.2 channel (Homo sapiens, UniProt O95180); assay: Intracellular calcium concentration measurement in human Cav3.2 channel expressing stable cell line (Pharmacological Test 1); assay type: cell-based; conditions: HEK293 cells stably expressing human Cav3.2, Fluo-4 AM fluorescence, KCl stimulation; read-out: Cav3.2 channel inhibitory action
T1 construct: expressed in transfected cells
From the text: (1) Construction of Human Cav3.2 Channel Expressing Stable Cell Line
A sequence in which a HindIII site and a kozak sequence (GCCACC) was provided on a 5′ side of a human Cav3.2 channel open reading frame (ORF) gene and a KpnI site was provided on a 3′ side thereof was incorporated into pcDNA3.1(+) (Thermo Fisher Scientific #V790-20), and the resultant was transfected into a HEK293 cell (ATCC No. CRL-1573) according to a protocol of FuGENE (registered trademark) HD Transfection Reagent (Promega #E2311).
(2) Method of Measuring Intracellular Calcium Concentration
The human Cav3.2 channel expressing stable cell line prepared by the test method (1) was seeded in a 96-well plate using a Dulbecco's modified Eagle's medium (DMEM medium) containing 10% fetal bovine serum (FBS), followed by culturing 37° C. for 48 hours under a 5% CO2 condition. Thereafter, the medium was removed, and each well washed with an A buffer was treated with 80 μL of a fluorescent dye solution containing a liquid mixture of 22 μg of a calcium fluorescent indicator Fluo-4 AM (Dojindo Molecular Technologies, Inc., #F311), 20 μL of dimethyl sulfoxide (DMSO), 1 μL of 10% Pluronic F-127 (Thermo Fisher Scientific #P6866), and 4 mL of the A buffer. After being left to stand for 45 minutes at room temperature under a light shielding condition, the cells were washed with a B buffer. In DMSO having the same final concentration as the test compound as a negative control, and the test compound dissolved in DMSO to have a final concentration of 0.1%, each test compound concentration solution containing the B buffer was added to each well. The cells were left to stand for additional 15 minutes at room temperature under a light shielding condition, and were measured using microplate reader EnVision (PerkinElmer Co., Ltd.) by the following method. First, after measuring background fluorescence in each well, an ionophore was added, and baseline fluorescence was measured. Thereafter, B buffer containing added KCl at a concentration of 83.8 mM was added to each well, and an increase in fluorescence due to calcium influx caused by the stimulation was measured for 10 seconds. Inhibition percentage was calculated from the maximum fluorescence increase value from the baseline, and an IC50 value was calculated by plotting a logarithmic value of the test compound concentration and inhibition activity. The measurement was performed by observing fluorescence of 510 nm emitted when the cells were irradiated with excitation light of 485 nm.
A buffer: 140 mM NaCl, 5 mM KCl, 1 mM MgCl2, 0.5 mM CaCl2, 10 mM Glucose, 10 mM HEPES, pH 7.3
B buffer: potassium equilibrium potential: −92 mV

human Cav3.2 channel [2] = target: T1, human Cav3.2 channel; assay: Electrophysiological evaluation, automated whole-cell patch clamp of Cav3.2 channel current (Pharmacological Test 2); assay type: cell-based; conditions: for inhibition at 0.3 µM: read-out: Cav3.2 channel current inhibition rate in test compound of 0.3 μM (holding potential of −80 mV) (%); for inhibition at 3 µM: 3 μM test compound, holding potential −100 mV, read-out: Cav3.2 channel current inhibition rate in test compound of 3 μM (holding potential of −100 mV) (%)
Protocol: The human Cav3.2 channel expressing stable cell line prepared by the test method (1) of Example 36 was seeded in a 10-cm dish using a DMEM medium containing 10% FBS, followed by culturing 37° C. for 24 hours under a 5% CO2 condition. The cells were detached using Accutase, and suspended in ice-cooled extracellular fluid for use. A Cav3.2 channel current was measured using an automated patch clamp system (Port-a-Patch; Nanion Technologies, EPC-10; HEKA Elektronik GmbH, Patchmaster; HEKA Elektronik GmbH) and buffers shown below, by a whole-cell patch-clamp method. The measurement of the Cav3.2 channel current was performed at room temperature, a measurement condition was a holding potential of −80 mV, a depolarization potential was −20 mV, a depolarization time was 100 msec, and a depolarization frequency was 10 sec. The Cav3.2 channel current was a peak value of an inward current observed at the time of depolarization to −20 mV.
The test compound was obtained by diluting a DMSO solution 1000 times with extracellular fluid to prepare a solution having a target concentration. The test compound was applied using an external perfusion system (Nanion Technologies) until the Cav3.2 channel current was stabilized, and a maximum of five concentrations from the low concentration side were cumulatively applied. An inhibition rate of the test compound was calculated from a change rate between a current value immediately before application of the test compound and the Cav3.2 channel current after application of the test compound (in a condition of holding potential of −80 mV, a concentration of the test compound was 0.3 μM, and in a condition of holding potential of −100 mV, a concentration of the test compound was 3 μM).
Extracellular fluid: 135 mM NaCl, 4 mM KCl, 1 mM MgCl2, 5 mM CaCl2, 5 mM D-Glucose, 10 mM HEPES, pH 7.4
Electrode internal fluid: 10 mM NaCl, 10 mM HEPES, 50 mM CsCl, 60 mM Cs-Fluoride, 20 mM EGTA, pH 7.2

[3] = test system: mouse partial sciatic nerve ligation (PSNL) model; assay: Mechanical allodynia in mouse partial sciatic nerve ligation (PSNL) model, von Frey filament test (Pharmacological Test 3); assay type: in vivo; conditions: 30 mg/kg orally administered
Protocol: A mouse PSNL model was prepared according to a method of Seltzer et al. A mouse was anesthetized by inhalation with isoflurane. A femoral region of the mouse was shaved and disinfected with isodine. Skin on a femur of the mouse was incised, fascia just below the skin was cut off, and muscle heads of musculus biceps femoris were divided. After confirmation of sciatic nerves just below the muscle, and the sciatic nerves were separated without damage. ½ to ⅓ of the sciatic nerve was penetrated by a needle with 8-0 silk and ligated. The skin was sutured and the mouse was reared for about 7 days. In surgery of a sham control mouse, only confirmation of the sciatic nerves was performed and then the skin was sutured.
A pain threshold was measured after moving the mice to a cage for measurement and waiting for the exploratory behavior to disappear. Regarding the pain threshold (paw withdrawal filament ((g)), soles of the mice were stimulated with von Frey filaments (Sttoelting Co.: TOUCH-TEST SENSORY EVLUATOR) having different stimulation intensities, and the presence or absence of avoidance response was observed. A 50% threshold was calculated by an up down method with reference to a method of Chaplan et al. (Quantitative assessment of tactile allodynia in the rat paw. J neurosci Methods, 53, 1994, 55 to 63). […]

[4] = 0.3 μM test compound, holding potential −80 mV, depolarization to −20 mV

T1 sequence (O95180 whole entry): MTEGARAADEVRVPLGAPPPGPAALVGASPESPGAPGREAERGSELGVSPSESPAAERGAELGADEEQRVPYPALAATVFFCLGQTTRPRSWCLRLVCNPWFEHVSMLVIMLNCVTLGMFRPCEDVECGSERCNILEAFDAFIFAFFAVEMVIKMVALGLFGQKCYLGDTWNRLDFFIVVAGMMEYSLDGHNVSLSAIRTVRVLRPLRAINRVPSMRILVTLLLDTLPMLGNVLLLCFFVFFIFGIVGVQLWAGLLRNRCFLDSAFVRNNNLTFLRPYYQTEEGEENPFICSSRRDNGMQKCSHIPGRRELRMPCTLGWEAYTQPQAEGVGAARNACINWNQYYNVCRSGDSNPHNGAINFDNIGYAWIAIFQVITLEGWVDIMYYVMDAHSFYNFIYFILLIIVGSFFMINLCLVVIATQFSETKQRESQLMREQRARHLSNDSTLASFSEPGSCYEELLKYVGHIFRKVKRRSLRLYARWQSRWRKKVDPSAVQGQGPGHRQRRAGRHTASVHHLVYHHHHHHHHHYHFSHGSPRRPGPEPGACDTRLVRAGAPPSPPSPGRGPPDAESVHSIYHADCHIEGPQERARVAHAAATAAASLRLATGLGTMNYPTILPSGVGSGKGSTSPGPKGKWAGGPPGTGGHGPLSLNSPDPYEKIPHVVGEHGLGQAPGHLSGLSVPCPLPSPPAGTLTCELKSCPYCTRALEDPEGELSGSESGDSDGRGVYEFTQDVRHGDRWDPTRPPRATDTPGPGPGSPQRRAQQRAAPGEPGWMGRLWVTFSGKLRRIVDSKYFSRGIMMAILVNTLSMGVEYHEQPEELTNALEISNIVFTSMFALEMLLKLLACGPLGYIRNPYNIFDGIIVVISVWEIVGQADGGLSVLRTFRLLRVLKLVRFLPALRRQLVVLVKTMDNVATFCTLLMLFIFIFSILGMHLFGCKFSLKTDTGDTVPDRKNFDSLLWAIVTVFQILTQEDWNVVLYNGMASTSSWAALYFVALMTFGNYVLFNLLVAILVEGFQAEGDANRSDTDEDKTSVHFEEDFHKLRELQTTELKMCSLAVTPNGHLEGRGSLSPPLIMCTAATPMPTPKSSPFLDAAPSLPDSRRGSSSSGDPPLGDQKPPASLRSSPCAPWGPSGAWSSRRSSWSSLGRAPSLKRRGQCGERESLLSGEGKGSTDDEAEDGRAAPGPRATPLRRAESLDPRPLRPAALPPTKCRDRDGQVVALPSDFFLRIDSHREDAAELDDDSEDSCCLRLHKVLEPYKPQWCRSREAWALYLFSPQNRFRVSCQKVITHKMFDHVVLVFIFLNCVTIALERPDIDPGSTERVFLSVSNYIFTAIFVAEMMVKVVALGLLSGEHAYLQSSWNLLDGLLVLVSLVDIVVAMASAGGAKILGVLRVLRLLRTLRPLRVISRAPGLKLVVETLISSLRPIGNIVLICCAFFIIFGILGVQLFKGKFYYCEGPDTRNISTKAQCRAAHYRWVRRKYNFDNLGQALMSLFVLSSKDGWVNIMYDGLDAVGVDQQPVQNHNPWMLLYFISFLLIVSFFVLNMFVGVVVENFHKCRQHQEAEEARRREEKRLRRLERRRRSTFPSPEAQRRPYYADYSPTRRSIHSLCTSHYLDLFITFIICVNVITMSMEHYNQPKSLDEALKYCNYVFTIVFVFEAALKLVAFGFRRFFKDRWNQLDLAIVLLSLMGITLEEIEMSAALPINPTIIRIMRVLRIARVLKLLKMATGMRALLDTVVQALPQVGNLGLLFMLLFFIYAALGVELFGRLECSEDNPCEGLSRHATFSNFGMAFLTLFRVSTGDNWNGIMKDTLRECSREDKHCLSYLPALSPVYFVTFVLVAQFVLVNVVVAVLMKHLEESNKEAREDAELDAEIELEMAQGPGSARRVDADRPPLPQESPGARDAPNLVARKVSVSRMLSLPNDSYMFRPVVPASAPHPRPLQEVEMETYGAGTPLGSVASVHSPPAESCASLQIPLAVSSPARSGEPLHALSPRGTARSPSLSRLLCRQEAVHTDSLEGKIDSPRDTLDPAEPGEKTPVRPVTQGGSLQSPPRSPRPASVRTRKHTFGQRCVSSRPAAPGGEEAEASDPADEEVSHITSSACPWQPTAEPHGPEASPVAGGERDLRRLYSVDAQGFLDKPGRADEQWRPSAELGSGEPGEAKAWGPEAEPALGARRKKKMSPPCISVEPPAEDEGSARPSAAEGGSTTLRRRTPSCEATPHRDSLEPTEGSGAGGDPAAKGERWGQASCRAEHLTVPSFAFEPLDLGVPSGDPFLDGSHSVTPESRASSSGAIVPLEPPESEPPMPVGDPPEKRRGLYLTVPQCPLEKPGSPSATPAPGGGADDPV

| SMILES | IC50 (human Cav3.2 channel [1]) [nM] | inhibition at 0.3 µM (human Cav3.2 channel [2]; [4]) [%] | inhibition at 3 µM (human Cav3.2 channel [2]) [%] | Cav3.2 channel current inhibition rate in test compound of 0.3 μM (holding potential of −80 mV) (%) (human Cav3.2 channel [2]; 0.3 μM test compound, holding potential −80 mV, depolarization to −20 mV, 0.3 µM) | mechanical allodynia (pain threshold, von Frey filament test) compared to the vehicle group [3] |
| --- | --- | --- | --- | --- | --- |
| O=C(CNC(=O)[C@@H]1C[C@H]1c1nc2ccccc2[nH]1)Nc1ccc(C(F)(F)F)cc1 (relative stereo) [Example 20, Trans-2-(1H-benzo[d]imidazol-2-yl)-N-(2-oxo-2-((4-(trifluoromethyl)phenyl)amino)ethyl) cyclopropane-1-carboxamide] | 100 to 1000 | 39 | 32 | – | – |
| O=C(NC1(C(=O)Nc2ccc(C(F)(F)F)cc2)CC1)[C@@H]1C[C@H]1c1nc2ccccc2[nH]1 (relative stereo) [Example 21, Trans-1-(2-(1H-benzo[d]imidazol-2-yl)cyclopropane-1-carboxamido)-N-(4-(trifluoromethyl)phenyl) cyclopropane-1-carboxamide] | 100 to 1000 | 51 | 41 | – | – |
| CCCc1ccc(NC(=O)C(C)NC(=O)C2CC2c2nc3ccccc3[nH]2)cc1 (single isomer, unassigned) [Example 1A, Trans-2-(1H-benzo[d]imidazol-2-yl)-N-(1-oxo-1-((4-propylphenyl)amino)propan-2-yl) cyclopropane-1-carboxamide] | 100 to 1000 | 86 | – | – | – |
| CC(NC(=O)C1CC1c1nc2ccccc2[nH]1)C(=O)Nc1ccc(C(F)(F)F)cc1 (single isomer, unassigned) [Example 4A, Trans-2-(1H-benzo[d]imidazol-2-yl)-N-(1-oxo-1-((4-(trifluoromethyl)phenyl)amino)propan-2-yl) cyclopropane-1-carboxamide] | 100 to 1000 | 43 | 38 | – | – |
| CC(NC(=O)C1CC1c1nc2ccccc2[nH]1)C(=O)Nc1ccc(C(F)(F)F)cc1 (single isomer, unassigned) [Example 4B, Trans-2-(1H-benzo[d]imidazol-2-yl)-N-(1-oxo-1-((4-(trifluoromethyl)phenyl)amino)propan-2-yl) cyclopropane-1-carboxamide] | 100 to 1000 | – | – | 23 | – |
| CC(NC(=O)C1CC1c1nc2ccccc2[nH]1)C(=O)Nc1ccc(C(F)(F)F)nc1 (single isomer, unassigned) [Example 5A, Trans-2-(1H-benzo[d]imidazol-2-yl)-N-(1-oxo-1-((6-(trifluoromethyl)pyridin-3-yl)amino)propan-2-yl) cyclopropane-1-carboxamide] | 100 to 1000 | 74 | 32 | – | statistically significantly suppressed |
| CC(NC(=O)C1CC1c1nc2ccccc2[nH]1)C(=O)Nc1ccc(C(C)(C)C)cc1 (single isomer, unassigned) [Example 7A, Trans-2-(1H-benzo[d]imidazol-2-yl)-N-(1-((4-(tert-butyl)phenyl)amino)-1-oxopropan-2-yl) cyclopropane-1-carboxamide] | 100 to 1000 | 30 | – | – | – |
| CC(NC(=O)C1CC1c1nc2ccccc2[nH]1)C(=O)Nc1cnc(Br)cn1 (single isomer, unassigned) [Example 18A, Trans-2-(1H-benzo[d]imidazol-2-yl)-N-(1-((5-bromopyrazin-2-yl)amino)-1-oxopropan-2-yl) cyclopropane-1-carboxamide] | 100 to 1000 | 46 | – | – | – |

Further lines, with some results ahead:

| IC50 (human Cav3.2 channel [1]) [nM] | inhibition at 0.3 µM (human Cav3.2 channel [2]; [4]) [%] | inhibition at 3 µM (human Cav3.2 channel [2]) [%] | Cav3.2 channel current inhibition rate in test compound of 0.3 μM (holding potential of −80 mV) (%) (human Cav3.2 channel [2]; 0.3 μM test compound, holding potential −80 mV, depolarization to −20 mV, 0.3 µM) | SMILES | mechanical allodynia (pain threshold, von Frey filament test) compared to the vehicle group [3] |
| --- | --- | --- | --- | --- | --- |
| ≤ 100 | 95 | – | – | O=C(NC1(C(=O)Nc2cccc(C(F)(F)F)c2)CC1)[C@H]1C[C@@H]1c1nc2ccccc2[nH]1 [Example 22, 1-((1S, 2S)-2-(1H-Benzo[d]imidazol-2-yl)cyclopropane-1-carboxamido)-N-(3-(trifluoromethyl)phenyl) cyclopropane-1-carboxamide] | – |
| ≤ 100 | 68 | – | – | O=C(NC1(C(=O)Nc2ccc(OC(F)(F)F)cc2)CC1)[C@H]1C[C@@H]1c1nc2ccccc2[nH]1 [Example 24, 1-((1S, 2S)-2-(1H-Benzo[d]imidazol-2-yl)cyclopropane-1-carboxamido)-N-(4-(trifluoromethoxy)phenyl) cyclopropane-1-carboxamide] | – |
| ≤ 100 | 84 | – | – | O=C(NC1(C(=O)Nc2ccc(C(F)(F)F)cc2)CC1)[C@H]1C[C@@H]1c1nc2ccccc2[nH]1 [Example 26, 1-((1S, 2S)-2-(1H-Benzo[d]imidazol-2-yl)cyclopropane-1-carboxamido)-N-(4-(trifluoromethyl)phenyl) cyclopropane-1-carboxamide] | statistically significantly suppressed |
| – | 17 | 14 | – | C[C@@H](NC(=O)C1CC1c1nc2ccccc2[nH]1)c1cnc(OCC(F)(F)F)cn1 (stereo partly drawn) [RQ-00311651, reference compound] | – |

From US11370761B2, “Voltage-dependent T-type calcium channel inhibitor” (Nippon Chemiphar Co., Ltd., priority 2017, dated 2022)
